From PubChem BioAssay (NCI)
“And” between values parts separate entries of the source, which are not always exact repeats. Identical values can stand only once.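 Where inhibition never reached the appropriate level, the endpoint shown equals the highest concentration tested. Otherwise, values were interpolated linearly from a five-concentration, 48-hour dose response in 96-well plates. Here, GI50 denotes the concentration required for 50% inhibition of growth. TGI: concentration producing complete growth inhibition.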

Columns and labels:
Experiment in all cases: DTP human tumour cell line panel, 48 h
OVCAR-8 ovarian = tested on: OVCAR-8 ovarian
NCI-H522 lung = tested on: NCI-H522 lung
SF-268 CNS = tested on: SF-268 CNS
UACC-257 melanoma = tested on: UACC-257 melanoma
CAKI-1 renal = tested on: CAKI-1 renal
CCRF-CEM leukemia = tested on: CCRF-CEM leukemia
HCT-116 colon = tested on: HCT-116 colon
786-0 renal = tested on: 786-0 renal
OVCAR-3 ovarian = tested on: OVCAR-3 ovarian
NCI/ADR-RES ovarian = tested on: NCI/ADR-RES ovarian

Compound | GI50 (OVCAR-8 ovarian) | TGI (OVCAR-8 ovarian) | GI50 (NCI-H522 lung) | TGI (NCI-H522 lung) | GI50 (SF-268 CNS) | TGI (SF-268 CNS) | GI50 (UACC-257 melanoma) [µM] | TGI (UACC-257 melanoma) | GI50 (CAKI-1 renal) | TGI (CAKI-1 renal) [µM] | GI50 (CCRF-CEM leukemia) | TGI (CCRF-CEM leukemia) | GI50 (HCT-116 colon) | TGI (HCT-116 colon) [µM] | GI50 (786-0 renal) | TGI (786-0 renal) [µM] | GI50 (OVCAR-3 ovarian) | TGI (OVCAR-3 ovarian) | GI50 (NCI/ADR-RES ovarian) | TGI (NCI/ADR-RES ovarian) [µM]
O=C(CC1(O)C(=O)N(Cc2ccccc2)c2ccc(Cl)cc21)c1ccc(C(=O)NCC2CCC3(CC2)OOC2(CCCCC2)OO3)cc1 (stereo not given) | 0.295 µM | 0.758 µM | 0.169 µM | 0.373 µM | 1.4 µM | 3.67 µM | 8.61 | > 100 µM | 0.418 µM | 0.864 | 0.274 µM | 0.662 µM | 1.3 µM | 4.29 | 0.192 µM | 0.367 | 0.197 µM | 0.419 µM | 0.271 µM | 0.833
Cc1ccc(Nc2nccc(N(C)c3ccc4c(C)n(C)nc4c3)n2)cc1S(N)(=O)=O | 4.8 µM and 3.61 µM and 5.04 µM | > 100 µM | 5.33 µM and 4 µM and 10.7 µM | 39 µM and > 10 µM and 28 µM | 5.26 µM and 3.17 µM and 9.96 µM | > 100 µM |  | > 10 µM and 51.5 µM | 1.43 µM and 4.39 µM | > 100 | 4.37 µM and 7.01 µM and 8.07 µM | > 100 µM | 3.49 µM and 1.7 µM and 5.44 µM | > 100 | 4.03 µM and 2.8 µM and 5.96 µM | > 100 | 7.93 µM and 6.42 µM and 15.2 µM | > 100 µM and > 10 µM and 77.9 µM | 45.8 µM and 23.1 µM | > 100
CCCCOC(=O)c1ccc(N)cc1 | > 100 µM | > 100 µM | 54.1 µM | > 100 µM | 71.1 µM | > 100 µM | 52.2 | > 100 µM | 11.4 µM | > 100 | 48.2 µM | > 100 µM | 90 µM | > 100 | 32.4 µM | > 100 | 68 µM | > 100 µM | 92.4 µM | > 100
O=c1[nH]c2ccccc2c2nc3ccccc3n12 |  | > 100 µM |  | 28.2 µM |  | > 100 µM |  | > 100 µM |  | 93.7 |  | > 100 µM |  | > 100 |  | > 100 |  | > 100 µM |  | > 100
N#Cc1c(NCc2ccccc2)nc(NCc2ccccc2)c(C#N)c1-c1ccc(O)cc1 | 58.1 µM | > 100 µM | 20.2 µM | 75.1 µM | 27.3 µM | > 100 µM | 43.2 | > 100 µM | 10.7 µM | 44.8 | 27.4 µM | > 100 µM | 14.5 µM | 34.1 | 23 µM | > 100 | 29.6 µM | 87.4 µM | 47 µM | > 100
CCCCC(CCCCCC(CCCC)NCc1ccc2c(c1)OCO2)NCc1ccc2c(c1)OCO2 (stereo not given) | 0.393 µM | 0.967 µM | 0.604 µM | 1.27 µM | 0.905 µM | 2.22 µM | 0.199 | 0.378 µM | 0.669 µM | 1.76 | 0.524 µM | 2.58 µM | 0.194 µM | 0.369 | 1.25 µM | 2.53 | 0.936 µM | 2.25 µM | 0.711 µM | 1.93
COc1cc2c3cc1Oc1c(OC)c(OC)cc4c1C(=NCC4)Cc1ccc(cc1)Oc1cc(ccc1O)C[C@H]3N(C)CC2 |  | 32 µM |  | 25.3 µM |  | > 100 µM |  | 29.6 µM |  | 49.1 |  | > 100 µM |  | 26.8 |  | 22.8 |  | 39.4 µM |  | 29.6
COC(=O)c1ccc2c(c1)C(=O)c1c-2n(CCCCl)c(=O)c2cc([N+](=O)[O-])ccc12 | > 100 µM | > 100 µM | 51 µM | > 100 µM | 42.2 µM | > 100 µM | > 100 | > 100 µM | 65.6 µM | > 100 | 52.8 µM | > 100 µM | 42.1 µM | > 100 | 63.5 µM | > 100 | 96.6 µM | > 100 µM | > 100 µM | > 100
CSCS(=O)C[C@H](CO)NC(=O)/C=C/c1c(C)[nH]c(=O)[nH]c1=O (stereo not given in full) | 1.02 µM | 3.96 µM and 4.35 µM | 1.35 µM | 3.3 µM and 2.36 µM | 0.571 µM | 3.86 µM and 1.37 µM | 2.22 | 7.79 µM and 4.86 µM | 2.74 µM |  | 1.46 µM | 8.69 µM and 4.02 µM | 3.16 µM |  |  | 5.23 | 1.89 µM | 4.63 µM and 3.98 µM |  | 6.07
CC(=O)O[C@H]([C@H](OC(C)=O)[C@H](C)OC(C)=O)[C@@H](/C=C/[C@@H]1CC=CC(=O)O1)OC(C)=O | 40.6 µM | > 100 µM | 2.05 µM | 4.73 µM | 28.9 µM | > 100 µM | > 100 | > 100 µM | 29.8 µM | 83.6 | 41.5 µM | > 100 µM | 33.4 µM | > 100 | 90.1 µM | > 100 | 17.1 µM | 41.9 µM | > 100 µM | > 100
